Measured values published in PubChem BioAssay AID2060341 (Molecular Pharmacology Branch, DTP, NCI, 2025).

System: 327498-153-R-J2-PDC multicell spheroid viability
Assay: Anticancer human tumor 327498-153-R-J2-PDC patient-derived uterine carcinosarcoma cell line growth inhibition [IpAb]
Conditions: for IC50: curve of first compound; for viability, T/C: stronger effect = lower value
Source text: Combinatorial screen of targeted agents with ipatasertib and abemaciclib in multi-cell type tumor spheroids
A high-throughput screen of multi-cell type tumor spheroids was designed to identify active combinations of targeted small molecules and ipatasertib or abemaciclib. Complex spheroids include a stromal component modeled by human endothelial cells (HUVEC) and fibroblasts modeled by human mesenchymal stem cells (MSCs). The concentration ranges selected for each drug and investigational agent were based upon clinically achievable concentrations if the clinical Cmax of the agent was known.
Compounds. The drugs and investigational agents: ipatasertib (NSC767898), abemaciclib(NSC768073), selumetinib (NSC741078), trametinib (758246), adavosertib (NSC754352), everolimus (NSC733504), sapanisertib (NSC764658), vemurafenib (NSC761431), venetoclax (NSC766270), copanlisib (NSC809693), apelisib (NSC765974), palbociblib (NSC758247), vemurafenib (NSC761431), dabrafenib (NSC764134), ravoxertinib (NSC781343), BMS-387032 (NSC767048), sotorasib (NSC818433), talazoparib (NSC767125) and afursertib (NSC778305), were obtained from the National Cancer Institute (NCI) Developmental Therapeutics Program Chemical Repository. The FDA-approved anticancer drug set is available from the NCI Developmental Therapeutics Program. […] The stock solutions were prepared in dimethyl sulfoxide (DMSO, Sigma-Aldrich, St. Louis, MO, cat. D2650) at 800-fold the tested concentration and stored at -70 degrees C prior to their use. All drugs and investigational agents were tested over a range starting from a high concentration at or near the clinical Cmax and decreasing in half-log increments. If the clinical Cmax for an agent had not been determined, the highest concentration tested was 10 microM.
NCI60 Cell Culture. NCI60 cell lines were obtained from the NCI Developmental Therapeutics Program Tumor Repository. For each lot of cells, the Repository performed Applied Biosystems AmpFLSTR Identifiler testing with PCR amplification to confirm consistency with the published Identifier STR profile for each cell line. Cells were kept in continuous culture for no more than 20 passages. The optimal seeding densities for each of the cell lines at each time point assessed were determined prior to performing the concentration response studies. Briefly, the NCI60 human tumor lines were grown as monolayers in RPMI 1640 medium supplemented with 10% FBS and 2 mmol/L L-glutamine.
An additional 9 lines were from the NCI60 cell line panel including MDA-MB-231 breast carcinoma, MDA-MB-468 breast carcinoma, MCF7 breast carcinoma, Hs578T breast carcinoma, MALME-3M melanoma, SK-MEL-2 melanoma, SK-OV-3 ovarian carcinoma, DU-145 prostate carcinoma, PC-3 prostate carcinoma, all cell lines along with major genetic alterations are listed on Table 2. Pooled donor human umbilical vein endothelial cells (HUVEC, Lonza, cat. CC-2519) and human mesenchymal stem cells (hMSC, Lonza, cat. PT-2501) were purchased from Lonza (Walkersville, MD).
PDMR cell lines were grown in complete medium (DC medium): Dulbecco's modified Eagle's medium (DMEM)/F12 supplemented with 5% fetal bovine serum (FBS), 2 mM L-glutamine, 100 U/mL penicillin and 100 µg/ml streptomycin, 0.4 µg/ml hydrocortisone, 10 ng/ml epidermal growth factor (EGF) recombinant human protein, 24 µg/mL adenine, and 0.1 mg/mL primocin. During culture from frozen stock vials, PDMR cells were cultured in the same medium containing 10 µM Y-27632 (see Table 3). The PDCs were cultured in complete DMEM/F12 media without 10 microM Y-27632 dihydrochloride for at least two passages prior to the screen. The pooled donor HUVEC and hMSC were cultured in endothelial cell growth medium 2 (PromoCell, Heidelberg, Germany, cat. C-22011) and mesenchymal stem cell growth medium 2 (PromoCell, cat. C-28009), respectively. For all experiments, HUVEC and hMSC were used at passages </=5.
[…]

[1] = second compound 0.1 µM, first compound 0.0316 µM
[2] = second compound 0.1 µM, first compound 0.1 µM
[3] = second compound 0.316 µM, first compound 0.0316 µM
[4] = second compound 0.316 µM, first compound 0.1 µM
[5] = second compound 1 µM, first compound 0.0316 µM
[6] = second compound 1 µM, first compound 0.1 µM
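Also: spheroids exposed to agents for 7 days.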
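For viability, T/C in this document: 100% = DMSO vehicle control viability.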

C=CC(=O)N1CCN(c2nc(=O)n(-c3c(C)ccnc3C(C)C)c3nc(-c4c(O)cccc4F)c(F)cc23)C(C)C1 (stereo not given) + CCN1CCN(Cc2ccc(Nc3ncc(F)c(-c4cc(F)c5nc(C)n(C(C)C)c5c4)n3)nc2)CC1
IC50 (second compound 0.01 µM): 209 nM
IC50 (second compound 0.0316 µM): < 31.6 nM
IC50 (second compound 0.1 µM): < 31.6 nM
IC50 (second compound 0.316 µM): < 31.6 nM
IC50 (second compound 1 µM): < 31.6 nM
viability, T/C (second compound 0.01 µM, first compound 0.0316 µM): 63.7%
viability, T/C (second compound 0.01 µM, first compound 0.1 µM): 52.8%
viability, T/C (second compound 0.01 µM, first compound 0.316 µM): 49%
viability, T/C (second compound 0.01 µM, first compound 1 µM): 44.5%
viability, T/C (second compound 0.01 µM, first compound 3.16 µM): 43%
viability, T/C (second compound 0.01 µM, first compound 10 µM): 42.2%
viability, T/C (second compound 0.0316 µM, first compound 0.0316 µM): 50.3%
viability, T/C (second compound 0.0316 µM, first compound 0.1 µM): 42.7%
viability, T/C (second compound 0.0316 µM, first compound 0.316 µM): 40%
viability, T/C (second compound 0.0316 µM, first compound 1 µM): 41.5%
viability, T/C (second compound 0.0316 µM, first compound 3.16 µM): 38%
viability, T/C (second compound 0.0316 µM, first compound 10 µM): 38.4%
viability, T/C [1]: 42.5%
viability, T/C [2]: 38.1%
viability, T/C (second compound 0.1 µM, first compound 0.316 µM): 36.9%
viability, T/C (second compound 0.1 µM, first compound 1 µM): 30.7%
viability, T/C (second compound 0.1 µM, first compound 3.16 µM): 38.6%
viability, T/C (second compound 0.1 µM, first compound 10 µM): 35.5%
viability, T/C [3]: 35.7%
viability, T/C [4]: 33.2%
viability, T/C (second compound 0.316 µM, first compound 0.316 µM): 31.5%
viability, T/C (second compound 0.316 µM, first compound 1 µM): 32.8%
viability, T/C (second compound 0.316 µM, first compound 3.16 µM): 36.5%
viability, T/C (second compound 0.316 µM, first compound 10 µM): 36.8%
viability, T/C [5]: 37%
viability, T/C [6]: 36.5%
viability, T/C (second compound 1 µM, first compound 0.316 µM): 29.1%
viability, T/C (second compound 1 µM, first compound 1 µM): 35.5%
viability, T/C (second compound 1 µM, first compound 3.16 µM): 38.1%
viability, T/C (second compound 1 µM, first compound 10 µM): 44.1%

CC(C)n1nc(-c2ccc3oc(N)nc3c2)c2c(N)ncnc21 + CC(C)NCC(C(=O)N1CCN(c2ncnc3c2C(C)CC3O)CC1)c1ccc(Cl)cc1
IC50 (second compound 0.1 µM): 5.3 nM
IC50 (second compound 0.316 µM): 1.76 nM
IC50 (second compound 1 µM): 0.442 nM
IC50 (second compound 3.16 µM): < 0.316 nM
IC50 (second compound 10 µM): < 0.316 nM
viability, T/C (second compound 0.1 µM, first compound 0.000316 µM): 83.5%
viability, T/C (second compound 0.1 µM, first compound 0.001 µM): 80%
viability, T/C (second compound 0.1 µM, first compound 0.00316 µM): 60.3%
viability, T/C (second compound 0.1 µM, first compound 0.01 µM): 36.6%
viability, T/C [1]: 20.7%
viability, T/C [2]: 15.7%
viability, T/C (second compound 0.316 µM, first compound 0.000316 µM): 74.6%
viability, T/C (second compound 0.316 µM, first compound 0.001 µM): 56.5%
viability, T/C (second compound 0.316 µM, first compound 0.00316 µM): 44%
viability, T/C (second compound 0.316 µM, first compound 0.01 µM): 24.4%
viability, T/C [3]: 16.6%
viability, T/C [4]: 13.3%
viability, T/C (second compound 1 µM, first compound 0.000316 µM): 55.1%
viability, T/C (second compound 1 µM, first compound 0.001 µM): 36.9%
viability, T/C (second compound 1 µM, first compound 0.00316 µM): 28.4%
viability, T/C (second compound 1 µM, first compound 0.01 µM): 16.8%
viability, T/C [5]: 10.6%
viability, T/C [6]: 11%
viability, T/C (second compound 3.16 µM, first compound 0.000316 µM): 39.2%
viability, T/C (second compound 3.16 µM, first compound 0.001 µM): 29.1%
viability, T/C (second compound 3.16 µM, first compound 0.00316 µM): 19.9%
viability, T/C (second compound 3.16 µM, first compound 0.01 µM): 11.5%
viability, T/C (second compound 3.16 µM, first compound 0.0316 µM): 8.42%
viability, T/C (second compound 3.16 µM, first compound 0.1 µM): 7.91%
viability, T/C (second compound 10 µM, first compound 0.000316 µM): 26.9%
viability, T/C (second compound 10 µM, first compound 0.001 µM): 24%
viability, T/C (second compound 10 µM, first compound 0.00316 µM): 13.7%
viability, T/C (second compound 10 µM, first compound 0.01 µM): 9.73%
viability, T/C (second compound 10 µM, first compound 0.0316 µM): 6.51%
viability, T/C (second compound 10 µM, first compound 0.1 µM): 6.09%
